Measurements taken from publication PMC6407917, “Identification of GSK3186899/DDD853651 as a Preclinical Development Candidate for the Treatment of Visceral Leishmaniasis” (Journal of Medicinal Chemistry, 2018).

Key:
Assay in all cases: biochemical
Parameters in all cases: species or system HEK293/K-562/placenta mixed human extract; Kinobeads chemoproteomic competition binding, quantified by TMT LC-MS/MS, dose response up to 20 uM
[1] = molecular target: AAK1 (Homo sapiens, UniProt Q2M2I8)
[2] = molecular target: ARAF (Homo sapiens, UniProt P10398)
Sequence of ARAF (P10398 whole entry): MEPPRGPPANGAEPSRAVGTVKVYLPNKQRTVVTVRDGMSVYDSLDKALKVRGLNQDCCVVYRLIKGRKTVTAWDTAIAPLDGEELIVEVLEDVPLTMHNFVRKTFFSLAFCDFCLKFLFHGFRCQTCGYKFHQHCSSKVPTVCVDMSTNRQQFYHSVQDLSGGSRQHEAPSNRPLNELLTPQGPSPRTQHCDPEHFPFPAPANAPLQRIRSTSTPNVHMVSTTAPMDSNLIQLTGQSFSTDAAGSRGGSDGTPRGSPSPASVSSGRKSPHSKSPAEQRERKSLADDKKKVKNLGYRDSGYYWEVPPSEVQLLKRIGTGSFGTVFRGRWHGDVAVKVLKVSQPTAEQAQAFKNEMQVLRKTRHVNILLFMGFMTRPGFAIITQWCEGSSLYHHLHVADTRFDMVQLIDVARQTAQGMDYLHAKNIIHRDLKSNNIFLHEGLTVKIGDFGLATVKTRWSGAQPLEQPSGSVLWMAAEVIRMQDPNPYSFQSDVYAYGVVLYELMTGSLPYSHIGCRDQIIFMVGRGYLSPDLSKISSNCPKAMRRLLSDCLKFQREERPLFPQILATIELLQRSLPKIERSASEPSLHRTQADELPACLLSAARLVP

[3] = molecular target: BMPR1A (Homo sapiens, UniProt P36894)
[4] = molecular target: CDC42BPG (Homo sapiens, UniProt Q6DT37)
Sequence of CDC42BPG (Q6DT37 whole entry): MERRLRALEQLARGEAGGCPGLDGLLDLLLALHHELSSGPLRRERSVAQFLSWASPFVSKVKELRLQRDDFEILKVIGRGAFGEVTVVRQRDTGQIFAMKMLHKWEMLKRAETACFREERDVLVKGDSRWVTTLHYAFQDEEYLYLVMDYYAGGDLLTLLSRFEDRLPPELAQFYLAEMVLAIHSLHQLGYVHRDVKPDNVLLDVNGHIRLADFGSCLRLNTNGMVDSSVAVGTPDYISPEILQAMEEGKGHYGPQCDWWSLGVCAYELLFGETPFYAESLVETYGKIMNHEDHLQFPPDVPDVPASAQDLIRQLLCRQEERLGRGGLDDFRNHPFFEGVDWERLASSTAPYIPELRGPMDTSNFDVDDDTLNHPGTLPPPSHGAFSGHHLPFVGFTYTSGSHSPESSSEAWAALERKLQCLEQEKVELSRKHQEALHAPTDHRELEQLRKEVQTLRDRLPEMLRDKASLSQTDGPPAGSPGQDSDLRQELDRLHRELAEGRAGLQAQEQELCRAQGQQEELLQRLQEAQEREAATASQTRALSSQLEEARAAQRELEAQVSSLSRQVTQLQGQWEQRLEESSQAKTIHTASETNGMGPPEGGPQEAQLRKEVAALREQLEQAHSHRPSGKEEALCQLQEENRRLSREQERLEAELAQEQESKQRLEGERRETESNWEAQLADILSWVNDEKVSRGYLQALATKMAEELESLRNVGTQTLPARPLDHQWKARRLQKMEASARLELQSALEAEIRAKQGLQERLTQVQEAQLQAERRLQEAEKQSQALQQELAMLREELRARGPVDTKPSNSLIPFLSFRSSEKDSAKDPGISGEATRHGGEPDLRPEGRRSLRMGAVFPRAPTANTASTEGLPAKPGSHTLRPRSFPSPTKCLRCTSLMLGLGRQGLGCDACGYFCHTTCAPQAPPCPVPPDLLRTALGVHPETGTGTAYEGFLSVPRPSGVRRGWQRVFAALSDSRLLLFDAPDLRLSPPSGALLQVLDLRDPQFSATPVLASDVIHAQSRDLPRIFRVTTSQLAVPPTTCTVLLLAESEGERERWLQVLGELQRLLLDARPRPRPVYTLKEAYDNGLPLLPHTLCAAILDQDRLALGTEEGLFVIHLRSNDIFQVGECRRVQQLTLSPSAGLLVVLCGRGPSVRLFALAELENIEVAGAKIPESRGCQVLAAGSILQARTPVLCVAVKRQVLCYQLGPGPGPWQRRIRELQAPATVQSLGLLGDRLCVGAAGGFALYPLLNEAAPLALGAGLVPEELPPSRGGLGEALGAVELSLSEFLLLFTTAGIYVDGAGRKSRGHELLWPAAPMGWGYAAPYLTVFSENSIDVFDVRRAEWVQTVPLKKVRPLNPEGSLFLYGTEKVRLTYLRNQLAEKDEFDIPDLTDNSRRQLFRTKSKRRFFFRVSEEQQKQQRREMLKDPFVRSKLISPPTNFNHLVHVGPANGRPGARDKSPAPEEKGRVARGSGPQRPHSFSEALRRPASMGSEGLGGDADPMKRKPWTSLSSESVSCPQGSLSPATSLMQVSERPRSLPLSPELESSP

[5] = molecular target: CDK9 (Homo sapiens, UniProt P50750)
Sequence of CDK9 (P50750 whole entry): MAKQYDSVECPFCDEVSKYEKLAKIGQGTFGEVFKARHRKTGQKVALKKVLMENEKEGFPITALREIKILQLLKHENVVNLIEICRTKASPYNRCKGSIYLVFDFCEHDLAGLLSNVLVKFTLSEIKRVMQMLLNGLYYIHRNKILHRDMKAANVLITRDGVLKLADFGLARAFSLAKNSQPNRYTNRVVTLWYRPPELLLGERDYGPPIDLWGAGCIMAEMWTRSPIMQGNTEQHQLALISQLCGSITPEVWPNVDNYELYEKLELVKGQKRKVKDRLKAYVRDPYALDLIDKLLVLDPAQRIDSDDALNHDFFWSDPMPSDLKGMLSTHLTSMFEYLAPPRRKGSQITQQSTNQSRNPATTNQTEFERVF

[6] = molecular target: CIT (Homo sapiens, UniProt O14578)
[7] = molecular target: DSTYK (Homo sapiens, UniProt Q6XUX3)
[8] = molecular target: EIF2AK1 (Homo sapiens, UniProt Q9BQI3)
Sequence of EIF2AK1 (Q9BQI3 whole entry): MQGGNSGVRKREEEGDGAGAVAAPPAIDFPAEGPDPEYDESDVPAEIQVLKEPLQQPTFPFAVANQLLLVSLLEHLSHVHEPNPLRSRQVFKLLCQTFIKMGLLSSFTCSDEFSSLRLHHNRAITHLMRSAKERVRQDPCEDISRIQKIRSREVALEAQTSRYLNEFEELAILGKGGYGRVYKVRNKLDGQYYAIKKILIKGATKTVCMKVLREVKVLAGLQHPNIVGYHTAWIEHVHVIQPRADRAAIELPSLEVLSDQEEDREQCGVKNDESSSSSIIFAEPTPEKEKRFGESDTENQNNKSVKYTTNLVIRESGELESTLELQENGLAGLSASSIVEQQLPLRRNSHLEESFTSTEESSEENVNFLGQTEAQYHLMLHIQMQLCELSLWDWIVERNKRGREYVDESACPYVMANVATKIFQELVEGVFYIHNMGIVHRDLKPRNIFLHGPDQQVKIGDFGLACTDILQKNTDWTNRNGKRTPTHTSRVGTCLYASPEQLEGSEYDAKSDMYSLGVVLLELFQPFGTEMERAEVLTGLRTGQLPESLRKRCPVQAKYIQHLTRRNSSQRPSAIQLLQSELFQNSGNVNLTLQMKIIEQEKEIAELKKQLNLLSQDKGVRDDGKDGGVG

[9] = molecular target: EPHA7 (Homo sapiens, UniProt Q15375)
Sequence of EPHA7 (Q15375 whole entry): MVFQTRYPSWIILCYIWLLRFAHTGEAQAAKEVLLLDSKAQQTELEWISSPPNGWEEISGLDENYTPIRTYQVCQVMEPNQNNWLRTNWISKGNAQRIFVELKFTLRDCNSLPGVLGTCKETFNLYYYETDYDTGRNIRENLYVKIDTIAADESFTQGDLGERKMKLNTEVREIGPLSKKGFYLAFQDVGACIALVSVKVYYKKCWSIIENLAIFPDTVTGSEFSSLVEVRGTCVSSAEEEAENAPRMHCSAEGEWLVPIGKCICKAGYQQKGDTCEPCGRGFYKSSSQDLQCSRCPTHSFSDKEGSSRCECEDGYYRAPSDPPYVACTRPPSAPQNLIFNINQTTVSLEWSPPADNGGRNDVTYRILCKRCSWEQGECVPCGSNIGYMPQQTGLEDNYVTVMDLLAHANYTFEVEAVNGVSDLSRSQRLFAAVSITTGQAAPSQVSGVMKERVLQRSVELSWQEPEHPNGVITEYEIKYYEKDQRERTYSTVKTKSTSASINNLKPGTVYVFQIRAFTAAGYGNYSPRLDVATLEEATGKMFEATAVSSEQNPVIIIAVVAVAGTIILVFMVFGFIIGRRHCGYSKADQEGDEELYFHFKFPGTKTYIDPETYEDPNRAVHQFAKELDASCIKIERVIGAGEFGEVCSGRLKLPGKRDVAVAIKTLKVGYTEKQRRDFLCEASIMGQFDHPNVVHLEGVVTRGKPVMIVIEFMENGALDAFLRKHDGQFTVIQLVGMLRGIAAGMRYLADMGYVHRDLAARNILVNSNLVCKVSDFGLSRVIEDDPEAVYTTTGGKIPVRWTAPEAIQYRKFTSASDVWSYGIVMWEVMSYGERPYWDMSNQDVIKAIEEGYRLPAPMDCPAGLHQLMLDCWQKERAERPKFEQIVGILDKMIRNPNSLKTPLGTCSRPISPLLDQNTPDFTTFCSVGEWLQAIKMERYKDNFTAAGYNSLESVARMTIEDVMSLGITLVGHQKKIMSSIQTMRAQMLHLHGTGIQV

[10] = molecular target: FES (Homo sapiens, UniProt P07332)
[11] = molecular target: MAP3K13 (Homo sapiens, UniProt O43283)
[12] = molecular target: MAP3K15 (Homo sapiens, UniProt Q6ZN16)
[13] = molecular target: MAP3K9 (Homo sapiens, UniProt P80192)
[14] = molecular target: PDPK1 (Homo sapiens, UniProt O15530)
[15] = molecular target: PIP4K2B (Homo sapiens, UniProt P78356)
[16] = molecular target: PLK1 (Homo sapiens, UniProt P53350)
[17] = molecular target: PRKCD (Homo sapiens, UniProt Q05655)
[18] = molecular target: PRKD2 (Homo sapiens, UniProt Q9BZL6)
Sequence of PRKD2 (Q9BZL6 whole entry): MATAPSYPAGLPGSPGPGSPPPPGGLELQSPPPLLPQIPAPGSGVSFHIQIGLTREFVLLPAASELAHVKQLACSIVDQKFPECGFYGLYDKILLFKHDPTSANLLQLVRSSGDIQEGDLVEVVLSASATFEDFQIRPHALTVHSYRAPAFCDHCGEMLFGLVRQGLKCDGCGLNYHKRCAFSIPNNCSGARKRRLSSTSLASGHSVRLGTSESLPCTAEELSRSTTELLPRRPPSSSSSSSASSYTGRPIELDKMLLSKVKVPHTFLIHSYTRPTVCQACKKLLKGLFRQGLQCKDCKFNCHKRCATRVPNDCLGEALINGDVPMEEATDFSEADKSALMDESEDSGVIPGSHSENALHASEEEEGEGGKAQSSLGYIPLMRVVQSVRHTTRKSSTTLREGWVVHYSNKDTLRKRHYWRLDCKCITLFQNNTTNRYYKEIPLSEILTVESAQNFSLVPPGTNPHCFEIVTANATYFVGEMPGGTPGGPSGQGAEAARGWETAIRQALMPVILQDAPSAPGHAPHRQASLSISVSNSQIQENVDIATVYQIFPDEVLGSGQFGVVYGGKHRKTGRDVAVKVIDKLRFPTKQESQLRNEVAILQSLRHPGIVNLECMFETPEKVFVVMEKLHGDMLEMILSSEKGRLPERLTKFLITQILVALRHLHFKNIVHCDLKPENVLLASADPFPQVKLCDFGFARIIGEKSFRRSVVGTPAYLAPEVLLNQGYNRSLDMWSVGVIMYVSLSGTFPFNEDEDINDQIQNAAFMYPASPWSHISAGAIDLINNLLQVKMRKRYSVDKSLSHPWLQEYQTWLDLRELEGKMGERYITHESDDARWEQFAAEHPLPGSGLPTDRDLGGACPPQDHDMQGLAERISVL

[19] = molecular target: PTK2B (Homo sapiens, UniProt Q14289)
[20] = molecular target: TP53RK (Homo sapiens, UniProt Q96S44)
[21] = molecular target: YWHAZ (Homo sapiens, UniProt P63104)

Measured: IC50

COc1nc(N[C@H]2CC[C@H](NS(=O)(=O)CC(C)C)CC2)nc2[nH]nc(N3CCOC[C@H]3C)c12 [compound 39, N-(trans-4-((4-Methoxy-3-((R)-3-methylmorpholino)-1H-pyrazolo[3,4-d]pyrimidin-6-yl)amino)cyclohexyl)-2-methylpropane-1-sulfonamide]
≥ 20 µM: all assays above
